test system: abdominal aorta ring specimen; assay: Evaluation of blood vessel relaxing function (phenylephrine-contracted abdominal aorta ring); details: relaxation of rat abdominal aorta contracted with 1 μmol/L phenylephrine; without vs with 10 μmol/L ODQ
Protocol: The representative compounds of the present invention were evaluated by blood vessel relaxing function according to the following Test Example. In the assay, bleeding from the upper part of a heart of a rat (male, SD) was performed under anesthesia with pentobarbital (30 mg/kg) and then abdominal aorta was extracted. The connecting tissue adhered around blood vessel was removed from the abdominal aorta in an ice-cooled Krebs-Henseleit solution (KH solution) (118 mmol/L sodium chloride, 4.7 mmol/L potassium chloride, 1.2 mmol/L magnesium sulfate, 1.2 mmol/L potassium dihydrogen phosphate, 25 mmol/L sodium hydrogen carbonate, 2.5 mmol/L calcium chloride, and 10 mmol/L glucose, pH 7.4). After that, a ring specimen with length of 2 mm was prepared and fixed in 5 mL organ bath filled with a KH solution. The KH solution was kept at 37° C. and aerated with a mixture gas of 95% O2 and 5% CO2. The specimen was stabilized for 1 hour with static tension of 1 g. The KH solution was exchanged twice during that time. The tension on the specimen was recorded on a multi-channel recorder via pickup and amplifier. After the stabilization of the specimen, contraction was caused by using 1 μmol/L phenylephrine (Phe), and cumulative administration of each compound (0.001, 0.01, 0.03, 0.1, 0.3, 1, 3, 10, 30, 100, 1000, 10000 nmol/L) was performed. For the evaluation of a case in which 1H-1,2,4-oxadiazole-(4,3a)-quinoxalin-1-one (ODQ) is contained, 10 μmol/L ODQ was added 10 minutes before the Phe addition, and the same evaluation as above was performed.
EC50 value was calculated using four-parameter logistics model using Assay Explorer (Accelrys). The test compound solution was dissolved in DMSO such that the concentration of each test compound is 1000 times the final concentration.

Compared with `O=C(O)CCCCN(CCc1ccccc1OCc1ccc(CCc2ccccc2)cc1)Cc1ccc(C(=O)O)cc1` [Cinaciguat, reference compound], `O=C(O)CCCCN(CCc1ccccc1OCc1ccc(SCc2ccccc2)cc1)C1CCCc2cc(C(=O)O)ccc21` (stereo not drawn) [Example 15, 5-{N-[2-[2-(4-Benzylsulfanylbenzyloxyl)phenyl]ethyl]-N-(4-carboxybutyl)amino}-5,6,7,8-tetrahydronaphthalene-2-carboxylic acid] is lower in “EC50 Ratio (ODQ−/ODQ+)” value: 12.4 for the first, 9.0 for the second.

With `O=C(O)CCCCN(CCc1ccccc1OCc1cccc2c1CCCC2)C1CCCc2cc(C(=O)O)ccc21` (stereo not drawn) [Example 29, 5-{N-(4-Carboxybutyl)-N-[2-[2-(5,6,7,8-tetrahydronaphthalene-1-ylmethoxy)phenyl]ethyl]amino}-5,6,7,8-tetrahydronaphthalene-2-carboxylic acid] the “EC50 Ratio (ODQ−/ODQ+)” value was 5.0.

Reference: US9290440B2, “Bicyclic compound” (TOA EIYO LTD., priority 2012, dated 2016)
